Experiments:
[1] = tested on: PGD2 production in the nasal cavities of guinea pigs with antigen-induced rhinitis; experiment: PGD2 production inhibiting action in the nasal cavities of guinea pigs with antigen-induced rhinitis; assay type: in vivo; conditions: for Rate of decrease in PGD2 concentration in the nasal cavity washing fluid (%): 30 mg/kg orally 1 hour before induction, washing 30 minutes after induction, * = significance level below 0.05 vs control group
Experimental: (§1) A physiological saline solution containing 1 mg/mL of ovalbumin was subcutaneously injected into the back of 5-week-old male Std:Hartley guinea pigs in an amount of 1 mL/body for active sensitization (initial sensitization). One week and two weeks after initial sensitization, 20 μL of a physiological saline solution containing 10 mg/mL of ovalbumin was instilled into each nasal cavity using a micropipette (sensitization by nasal administration). Three weeks after initial sensitization, 20 μL of a physiological saline solution containing 10 mg/mL of ovalbumin was instilled into each nasal cavity using a micropipette to induce a rhinitis reaction.
The test compound (30 mg/kg) was orally administered 1 hour before induction of a rhinitis reaction. The animals in the control group only received the medium orally.
30 minutes after the induction of a rhinitis reaction, the nasal cavities were washed under pentobarbital sodium anesthesia. A nasal cavity washing liquid (phosphate buffered saline containing 3 mM of EDTA and 10 μM of indomethacin) was flushed using a Peristaltic Pump (Gilson, Inc.) in the direction from the trachea to the upper respiratory tract at the flow rate of 1 mL/min, and the liquid flowing out from the nasal cavities was collected for 1 minute. The collected liquid was centrifuged to separate the supernatant as the nasal cavity washing fluid. The concentration of PGD2 in the nasal cavity washing fluid was determined using an EIA kit (Prostaglandin D2-MOX EIA kit, Cayman Chemical).
The rate of decrease in PGD2 in the nasal cavity washing fluid was calculated by the following formula. […] Rate of decrease in PGD2 in the nasal cavity washing fluid(%)={(PGD2 concentration in the control group−PGD2 concentration in the compound-administered group)÷(PGD2 concentration in the control group−PGD2 concentration in the normal group)}×100 […]

human H-PGDS = human H-PGDS (Homo sapiens (Human), UniProt O60760); experiment: Hematopoietic prostaglandin D synthase (H-PGDS) inhibiting action; assay type: biochemical; conditions: human H-PGDS, [14C] prostaglandin H2 10 μM
Experimental: More specifically, the reaction mixture (49 μL) containing 100 mM Tris-HCl (pH 8.0), 1 mM reduced glutathione, 0.1 mg/mL γ-globulin, and human H-PGDS (q.s.), and a compound (final concentration: 0.01-100 μM) was preincubated at 25° C. for 5 minutes. Note that a DMSO solution (final concentration: 1%) was added to the solvent control group. Subsequently, 1 μL of [14C] prostaglandin H2 (final concentration: 10 μM) was added to start the reaction. One minute after the start of the reaction, 250 μL of a reaction stopper solution (diethylether/methanol/1 M citric acid (30/4/1) at a temperature of −20° C. was added to stop the reaction. After the reaction was stopped, 50 μL of the upper layer portion (organic solvent phase) was applied to a TLC plate and developed at −20° C. for 45 minutes (developing solvent: diethylether/methanol/acetic acid (90/2/1)). After drying the TLC plate, the TLC plate was exposed to an imaging plate for 1 to 24 hours, and the radioactivity corresponding to prostaglandin D2 (PGD2) was analyzed using an image analyzer (produced by Fujifilm Corporation).

[2] = tested on: eosinophil infiltration in guinea pigs with antigen-induced rhinitis; experiment: Eosinophil infiltration inhibiting action in guinea pigs with antigen-induced rhinitis; assay type: in vivo; conditions: 30 mg/kg orally 3 times; washing 6 hours after induction; * = significance level below 0.05 vs control group
Experimental: as §1
The test compound (30 mg/kg) was orally administered 3 times in total (2 times at sensitization by nasal administrations and 1 time at the induction of a rhinitis reaction), 1 hour before sensitization or induction. The animals in the control group only received the medium orally.
6 hours after the induction of a rhinitis reaction, the nasal cavities were washed under pentobarbital sodium anesthesia. A nasal cavity washing liquid (phosphate buffered saline containing 3 mM of EDTA and 10 μM of indomethacin) was flushed using a Peristaltic Pump (Gilson, Inc.) in the direction from the trachea to the upper respiratory tract at the flow rate of 1 mL/min, and the liquid flowing out from the nasal cavities was collected for 3 minutes. The collected liquid was filtered through a cell strainer (40 μm), and centrifuged at 4° C., 300×g, for 10 minutes. Subsequently, the supernatant was removed by suction. 250 μL of nasal cavity washing liquid was added to the cell pellet to form a suspension. The total number of cells (×10^5 cells) in the cell suspension was determined using an automated blood cell counter (F-820, Sysmex Corporation).
A cell smear was prepared using a centrifugal device to collect cells (Cytospin-3, Shandon). After the cells were stained using a cell stain solution, the number of monocytes, the number of eosinophils, and the number of neutrophils were counted to obtain 300 cells in total by observation under a microscope (200-times magnification). The component ratio of each cell was calculated, and the number of eosinophils in the nasal cavity washing liquid was determined by the following formula. Number of eosinophils([…])=(Eosinophil count÷total count(300))×total number of cells
The rate of decrease in the number of eosinophils in the nasal cavity washing liquid was regarded as the eosinophil infiltration inhibition rate, and determined by the following formula. […] Inhibition rate(%)={(Number of eosinophils in the control group−number of eosinophils in the compound-administered group)÷(number of eosinophils in the control group−number of eosinophils in the normal group)}×100
16 cases were obtained from each group, and the number of eosinophils in the nasal cavity washing fluid was compared between the control group and each compound-administered group. Note that when the significance level was below 0.05, the eosinophil infiltration inhibiting action was considered to be present and indicated by a symbol (*) in the table.

C57BL/10-mdx (mdx) mice = experiment: Forelimb grip strength test in mice; assay type: in vivo; conditions: 30 mg/kg orally once a day for 4 weeks, * = significance level below 0.05 vs control group
Experimental: 4-week-old male C57BL/10-mdx (mdx) mice were used as a disease group, and 4-week-old male C57BL/10Sn (wild) mice were used as a normal group in the test. A acclimation period was provided after the arrival of the mice. An initial value of each individual was measured at 5 weeks of age, and 10 mice were assigned to each group. From the following day, the test compound (30 mg/kg) was orally administered to the mice once a day consecutively for 4 weeks. The animals in the control group only received the vehicle orally. The forelimb grip strength was measured at 4 weeks after the start of the administration. A value obtained by dividing the average of 5 forelimb grip strength measurement values (kg) determined using a small animal grip strength measurement device (GPM-100M, Melquest) by the body weight (kg) was used as the evaluation index (reference literature: Muscle Nerve., 35, 43-48 (2007)).
9 or more cases were obtained from each group to determine whether expression of forelimb grip strength enhancing action occurred. First, a significant decrease in the value of the control group compared to that of the normal group was confirmed, and then the value of the control group was compared with the value of the compound-administered group. When the significance level was below 0.05, the action was considered to be present and indicated by symbols (#) and (*) in the table.

human H-PGDS, sequence (O60760 whole entry): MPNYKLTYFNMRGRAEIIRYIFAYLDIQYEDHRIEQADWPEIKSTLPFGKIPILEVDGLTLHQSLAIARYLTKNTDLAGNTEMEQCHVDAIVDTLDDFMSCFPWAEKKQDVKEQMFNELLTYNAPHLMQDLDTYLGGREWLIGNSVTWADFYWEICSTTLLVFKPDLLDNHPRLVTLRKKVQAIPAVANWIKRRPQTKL

| Compound | Rate of decrease in PGD2 concentration in the nasal cavity washing fluid (%) [1] | H-PGDS inhibition rate (%) (human H-PGDS; compound at 0.1 μM, relative to the control group) | IC50 (human H-PGDS; read-out: IC50) [nM] | Eosinophil infiltration inhibition rate (%) [2] | Forelimb grip strength measurement value/body weight (kg/kg) (C57BL/10-mdx (mdx) mice) | PGD2 production inhibiting action (in words) ([1]; 30 mg/kg orally, summary of Table 2) |
| --- | --- | --- | --- | --- | --- | --- |
| 4-((1-methylpyrrol-2-yl)-carbonyl)-N-(4-(4-morpholin-1-yl-carbonylpiperidin-1-yl)-phenyl)-1-piperazinecarboxamide [Example 3] | 77.5* % | 54.2 | 76 | 49.9* % | 4.80 ± 0.09* kg/kg | – |
| O=C(Nc1nc2ccc(Br)cc2s1)N1CCN(C(=O)c2cccc(F)c2)CC1 [Reference Example 13, 4-(3-fluorobenzoyl)-piperazine-1-carboxylic acid-(6-bromobenzothiazol-2-yl)amide] | – | – | – | 34.2% | 4.37 ± 0.15 kg/kg | – |
| Cc1cc2nc(NC(=O)N3CCN(C(=O)c4cccc(F)c4)CC3)sc2cc1C [Reference Example 14, 4-(3-fluorobenzoyl)-piperazine-1-carboxylic acid-(5,6-dimethylbenzothiazol-2-yl)amide] | – | – | – | −25.1% | 4.26 ± 0.22 kg/kg | – |
| Cc1ccc2nc(NC(=O)N3CCN(C(=O)c4cccc(F)c4)CC3)sc2c1 [Reference Example 15, 4-(3-fluorobenzoyl)piperazine-1-carboxylic acid-(6-methylbenzothiazol-2-yl)amide] | – | – | – | −133.3* % | 4.20 ± 0.20 kg/kg | – |
| COc1ccc2nc(NC(=O)N3CCN(C(=O)c4cccc(F)c4)CC3)sc2c1 [Reference Example 16, 4-(3-fluorobenzoyl)piperazine-1-carboxylic acid-(6-methoxybenzothiazol-2-yl)amide] | – | – | – | −108.0* % | 4.29 ± 0.24 kg/kg | – |
| O=C(Nc1nc2ccc(Cl)cc2s1)N1CCN(C(=O)c2cccc(F)c2)CC1 [Reference Example 17, 4-(3-fluorobenzoyl)piperazine-1-carboxylic acid-(6-chlorobenzothiazol-2-yl)amide] | – | – | – | 16.6% | 4.48 ± 0.15 kg/kg | – |
| CON(C)C(=O)c1[nH]c(C)c(-c2nc3ccc(C(=O)c4ccccc4)cc3[nH]2)c1C [Reference Example 19, N-methoxy-N-methyl-4-(5-benzoylbenzimidazol-2-yl)-3,5-dimethylpyrrol-2-carboxamide] | 77.0* % | – | – | – | – | have the action |
